Reference: ChEMBL document CHEMBL1152924, “Synthetic staurosporines via a ring closing metathesis strategy as potent JAK3 inhibitors and modulators of allergic responses” (Bioorg Med Chem Lett, 2009)

How the values were obtained:
[1] = target: Tyrosine-protein kinase Lck (Homo sapiens, UniProt P06239); test: Inhibition of LCK-mediated inhibition of biotinylated substrate phosphorylation
[2] = target: Tyrosine-protein kinase SYK (Homo sapiens, UniProt P43405); test: Inhibition of SYK-mediated inhibition of biotinylated substrate phosphorylation
[3] = target: MAP kinase-activated protein kinase 2 (Homo sapiens, UniProt P49137); test: Inhibition of MK2-mediated inhibition of biotinylated substrate phosphorylation
[4] = target: T1, Tyrosine-protein kinase JAK3 (Homo sapiens, UniProt P52333); test: Inhibition of JAK3 expressed in insect Sf21 cells assessed as inhibition of biotinylated substrate phosphorylation
T1 sequence (P52333 whole entry): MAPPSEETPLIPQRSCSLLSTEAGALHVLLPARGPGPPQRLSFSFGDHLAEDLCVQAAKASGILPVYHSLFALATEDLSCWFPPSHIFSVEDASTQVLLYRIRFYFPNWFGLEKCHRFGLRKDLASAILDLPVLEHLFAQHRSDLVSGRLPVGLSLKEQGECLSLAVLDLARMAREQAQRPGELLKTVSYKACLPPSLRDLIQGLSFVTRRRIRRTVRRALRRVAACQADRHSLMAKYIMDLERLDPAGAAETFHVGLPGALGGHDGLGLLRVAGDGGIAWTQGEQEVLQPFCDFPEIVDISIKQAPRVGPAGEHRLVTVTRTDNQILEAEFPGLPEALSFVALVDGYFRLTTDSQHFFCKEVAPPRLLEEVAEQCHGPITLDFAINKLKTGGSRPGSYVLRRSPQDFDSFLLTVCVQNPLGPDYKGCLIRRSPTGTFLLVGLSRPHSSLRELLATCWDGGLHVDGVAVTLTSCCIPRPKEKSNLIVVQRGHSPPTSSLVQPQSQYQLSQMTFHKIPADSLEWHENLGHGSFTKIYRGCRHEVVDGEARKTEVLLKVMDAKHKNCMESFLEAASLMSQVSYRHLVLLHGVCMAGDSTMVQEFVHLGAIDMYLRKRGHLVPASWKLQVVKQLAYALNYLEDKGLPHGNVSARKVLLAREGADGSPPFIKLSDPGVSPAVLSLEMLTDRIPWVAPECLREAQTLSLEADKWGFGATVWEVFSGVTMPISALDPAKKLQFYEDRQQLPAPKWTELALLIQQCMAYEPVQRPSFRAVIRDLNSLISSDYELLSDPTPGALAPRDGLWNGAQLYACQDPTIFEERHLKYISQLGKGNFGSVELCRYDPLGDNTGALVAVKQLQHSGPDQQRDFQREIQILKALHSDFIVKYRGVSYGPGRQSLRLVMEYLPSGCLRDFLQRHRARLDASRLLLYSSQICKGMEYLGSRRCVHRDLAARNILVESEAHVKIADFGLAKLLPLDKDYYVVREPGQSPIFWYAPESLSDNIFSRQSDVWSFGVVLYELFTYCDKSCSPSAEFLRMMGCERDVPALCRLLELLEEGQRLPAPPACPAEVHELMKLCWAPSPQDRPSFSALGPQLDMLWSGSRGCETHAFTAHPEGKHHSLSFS

Jurkat [5] = test: Antiproliferative activity against JAK3 expressing human resting Jurkat cells; format: functional, cell-based
Jurkat [6] = test: Antiproliferative activity against JAK3 expressing IL2-stimulated human Jurkat cells; format: functional, cell-based
[7] = target: T2, Tyrosine-protein kinase ZAP-70 (Homo sapiens, UniProt P43403); test: Inhibition of Zap70-mediated inhibition of biotinylated substrate phosphorylation
T2 sequence (P43403 whole entry): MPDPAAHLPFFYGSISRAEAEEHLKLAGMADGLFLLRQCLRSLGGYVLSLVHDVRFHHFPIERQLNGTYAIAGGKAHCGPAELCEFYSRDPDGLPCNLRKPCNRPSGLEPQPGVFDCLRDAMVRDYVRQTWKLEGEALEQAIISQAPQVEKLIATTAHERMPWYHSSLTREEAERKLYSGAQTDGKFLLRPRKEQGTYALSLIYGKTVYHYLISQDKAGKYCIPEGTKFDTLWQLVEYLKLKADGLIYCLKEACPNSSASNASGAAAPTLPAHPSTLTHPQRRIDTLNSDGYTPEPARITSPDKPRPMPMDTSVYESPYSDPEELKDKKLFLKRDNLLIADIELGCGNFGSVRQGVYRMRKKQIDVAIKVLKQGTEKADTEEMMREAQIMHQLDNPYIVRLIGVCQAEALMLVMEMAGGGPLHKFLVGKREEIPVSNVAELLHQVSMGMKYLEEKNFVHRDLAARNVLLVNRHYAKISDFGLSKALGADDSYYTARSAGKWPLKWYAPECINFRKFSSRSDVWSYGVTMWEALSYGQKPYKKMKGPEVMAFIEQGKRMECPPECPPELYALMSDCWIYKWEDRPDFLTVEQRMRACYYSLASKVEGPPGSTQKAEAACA

Mus musculus [8] = test: Antiinflammatory activity against ovalbumin-induced asthma in BALB/c mouse model assessed as reduction of neutrophil count in broncheovular lavage fluid at 30 mg/kg, ip measured on day 32 after ovalbumin challenge; format: functional; design: scale not given: the % may be the effect or the level left; conditions: route intraperitoneal
Mast cell [9] = test: Inhibition of LPS-induced TNFalpha release in mast cells; format: functional, cell-based
Mus musculus [10] = test: Antiinflammatory activity against ovalbumin-induced asthma in BALB/c mouse model assessed as reduction in methacoline-induced airway constriction at 30 mg/kg, ip measured on day 32 after ovalbumin challenge; format: functional; design: scale not given: the % may be the effect or the level left; conditions: route intraperitoneal
Mast cell [11] = test: Inhibition of hexosaminidase release in IgE-stimulated mast cells; format: functional, cell-based
Mus musculus [12] = test: Inhibition of ovalbumin-induced IgE production in mouse at 30 mg/kg, ip administered on day 1, 3 and 5 after 1 hr of ovalbumin challenge followed by additional dosing on day 2 and 4 measured on day 8 by ELISA; format: functional; design: scale not given: the % may be the effect or the level left; conditions: route intraperitoneal
T-cell = test: Inhibition of IL2-induced PHA-stimulated healthy human T cells proliferation by [3H]thymidine assay; format: functional, cell-based
Mus musculus [13] = test: Antiinflammatory activity against ovalbumin-induced asthma in BALB/c mouse model assessed as reduction of eosinophil count in broncheovular lavage fluid at 30 mg/kg, ip measured on day 32 after ovalbumin challenge; format: functional; design: scale not given: the % may be the effect or the level left; conditions: route intraperitoneal
Mus musculus [14] = test: Inhibition of ovalbumin-induced IgE production in mouse at 10 mg/kg, ip administered on day 1, 3 and 5 after 1 hr of ovalbumin challenge followed by additional dosing on day 2 and 4 measured on day 8 by ELISA; format: functional; design: scale not given: the % may be the effect or the level left; conditions: route intraperitoneal

MAP kinase-activated protein kinase 2, sequence (P49137 whole entry): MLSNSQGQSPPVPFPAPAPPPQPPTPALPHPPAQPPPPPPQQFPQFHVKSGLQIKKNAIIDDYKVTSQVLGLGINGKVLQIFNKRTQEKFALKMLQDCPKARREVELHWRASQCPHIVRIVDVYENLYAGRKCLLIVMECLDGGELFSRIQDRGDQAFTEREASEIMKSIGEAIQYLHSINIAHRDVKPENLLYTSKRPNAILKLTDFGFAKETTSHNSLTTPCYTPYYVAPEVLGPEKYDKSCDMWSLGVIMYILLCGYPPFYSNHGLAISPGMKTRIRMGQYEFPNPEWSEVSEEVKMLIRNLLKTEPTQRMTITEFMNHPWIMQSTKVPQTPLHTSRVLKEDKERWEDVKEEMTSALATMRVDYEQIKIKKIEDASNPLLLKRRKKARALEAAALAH
Tyrosine-protein kinase Lck, sequence (P06239 whole entry): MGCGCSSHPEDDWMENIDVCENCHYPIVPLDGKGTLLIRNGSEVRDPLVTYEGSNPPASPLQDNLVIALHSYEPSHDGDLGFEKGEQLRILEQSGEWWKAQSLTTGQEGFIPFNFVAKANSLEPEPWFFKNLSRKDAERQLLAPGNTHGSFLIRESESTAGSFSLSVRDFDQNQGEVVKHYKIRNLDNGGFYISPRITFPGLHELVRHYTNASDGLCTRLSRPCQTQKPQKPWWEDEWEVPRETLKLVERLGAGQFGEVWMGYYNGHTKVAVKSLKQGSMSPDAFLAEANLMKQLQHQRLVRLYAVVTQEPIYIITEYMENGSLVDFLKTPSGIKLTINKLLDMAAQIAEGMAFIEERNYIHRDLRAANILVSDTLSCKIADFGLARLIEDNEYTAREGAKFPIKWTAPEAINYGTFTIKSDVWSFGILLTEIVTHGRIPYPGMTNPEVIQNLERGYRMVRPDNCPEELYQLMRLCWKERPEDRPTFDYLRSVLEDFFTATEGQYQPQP

Structure (SMILES)	IC50 [4] [µM]	IC50 (Jurkat [5]) [µM]	IC50 (Jurkat [6]) [µM]	further results
CC(=O)/C1=C/Cn2c3ccccc3c3c4c(c5c6ccccc6n(c5c32)C1)C(=O)NC4=O	0.007	> 10	0.575	IC50 [1]: > 1 µM; IC50 [2]: > 1 µM; IC50 [3]: 0.54 µM; IC50 [7]: > 1 µM
CN(C)C1CCN(C(=O)[C@]2(O)Cn3c4ccccc4c4c5c(c6c7ccccc7n(c6c43)C[C@H]2O)C(=O)NC5=O)C1 (stereo not given in full)	0.015	1.6	0.057	–
O=C1NCc2c1c1c3ccccc3n3c1c1c2c2ccccc2n1C/C=C\C3	0.039	> 10	0.111	–
O=C1NCc2c1c1c3ccccc3n3c1c1c2c2ccccc2n1CC/C=C\CC3	–	10	0.432	–
O=C1NC(=O)c2c1c1c3ccccc3n3c1c1c2c2ccccc2n1CC(O)CC3 (stereo not given)	–	5.67	0.16	–
O=C1NC(=O)c2c1c1c3ccccc3n3c1c1c2c2ccccc2n1C[C@H](O)[C@H](O)C3	0.003	> 10	0.048	–
C=CCn1c2ccccc2c2c3c(c4c5ccccc5n(CC=C)c4c21)C(=O)NC3	> 0.2	–	–	–
O=C1NC(=O)c2c1c1c3ccccc3n3c1c1c2c2ccccc2n1CC(O)CCC3 (stereo not given)	–	> 10	2.86	–
O=C1NC(=O)c2c1c1c3ccccc3n3c1c1c2c2ccccc2n1C[C@@](O)(C(=O)O)[C@H](O)C3 (relative stereo)	0.009	> 10	0.222	–
O=C1NC(=O)c2c1c1c3ccccc3n3c1c1c2c2ccccc2n1C[C@@H](O)[C@@H](O)CC3 (relative stereo)	0.009	> 10	0.227	–
O=C1NCc2c1c1c3ccccc3n3c1c1c2c2ccccc2n1CC[C@@H](O)[C@@H](O)CC3 (relative stereo)	0.012	0.616	0.045	–
O=C1NCc2c1c1c3ccccc3n3c1c1c2c2ccccc2n1C[C@@H](O)[C@@H](O)C3 (relative stereo)	0.006	10	0.098	IC50 [1]: > 1 µM; Activity (Mus musculus [8]): 54%; IC50 [2]: 0.3 µM; IC50 [3]: > 1 µM; IC50 (Mast cell [9]): 0.018 µM; Activity (Mus musculus [10]): 90%; IC50 (Mast cell [11]): 0.055 µM; Activity (Mus musculus [12]): 70%; IC50 [7]: 0.2 µM; IC50 (T-cell): 0.1 µM; Activity (Mus musculus [13]): 54%; Activity (Mus musculus [14]): 15%
COC(=O)[C@]1(O)Cn2c3ccccc3c3c4c(c5c6ccccc6n(c5c32)C[C@H]1O)C(=O)NC4=O (relative stereo)	0.001	> 10	0.023	IC50 [1]: 0.3 µM; IC50 [2]: > 1 µM; IC50 [3]: > 1 µM; IC50 [7]: > 1 µM
O=C1NCc2c1c1c3ccccc3[nH]c1c1[nH]c3ccccc3c21 [STAUROSPORINONE]	0.061	–	–	–
